Laboratory results published in patent US11060153B2, “Fluorescence amplification method for forward genetic discovery of factors in human mRNA degradation” (Yale University, priority 2016, dated 2021).

Key:
[1] = tested on: human NMD; experiment: CRISPR-based forward genetic screen of the GeCKO-LtCRISPR sgRNA library in "green" Fireworks cells (FACS enrichment rounds, deep sequencing of sgRNAs); format: cell-based; details: for sgRNA abundance (%): deep sequencing reads for the sgRNA in the enriched cell population / all reads x 100, round 2, "green" Fireworks cells; for sgRNA enrichment (2nd round): reads in the enriched cell population / reads in total cells at the beginning of the 2nd round, measure of increased PTC(+) reporter fluorescence
Procedure: 1.8×10^8 (6×15 cm plates) “green” Fireworks cells were lentivirally transduced with the blasticidin-resistant GeCKO-LtCRISPR viral library (Shalem et al., Science 2014, 343:84-87) using 4.0 μm/ml of polybrene and propagated for 8-9 days in DMEM media supplemented with 10% FBS and 120 μm/ml hygromycin, 0.3 μg/ml puromycin and 3.0 μm/ml blasticidin. NMD-deficient cell populations (2×10^5 cells) were isolated from 4×10^8 transduced cells using a Bio-Rad S3e cell sorter (100 μm nozzle) and their genomic DNA was phenol-extracted. sgRNAs pools were PCR-amplified using RandomF (5′-[…] AACACCG-3′) (SEQ ID NO: 6) and RandomR (5′-[…] TAAAAC-3′) (SEQ ID NO: 7) primers and Gibson-cloned into the BsmBI-inearized LentiCRISPR (Shalem et al., Science 2014, 343:84-87) vector to obtain a lentiviral library (represented by 1.5×10^8 independent transformants) for the next enrichment round (FIG. 5C). Three rounds of GeCKO Lt-CRISPR library enrichment were conducted; 1.4×10^8 and 1.2×10^8 cells were sorted in the 2nd and 3rd rounds, respectively. sgRNAs obtained from the 2nd round were deep-sequenced and ranked (Table 1) according to their (i) overall abundance in the enriched sgRNA pool and (ii) enrichment over the starting sgRNA population in this round (since successful enrichment increases both of these numbers).
The Fireworks system was tested with the CRIPR-based knockout screening using the lentiviral GeCKO-lentiCRISPR sgRNA library (Shalem et al., Science 2014, 343:84-87), which contains 64,751 sgRNAs targeting 18,080 human genes. Ease of amplification of chromosomally-integrated sgRNAs by PCR allows multiple rounds of sgRNA library enrichment (FIG. 5C) as sgRNAs are iteratively re-transduced into the original Fireworks cell line after the each round of FACS selection in a SELEX-like (Tuerk and Gold, Science 1990, 249:505-510) manner. Fireworks-driven FACS throughput permits completion of one FACS cycle of genome-wide GeCKO library screening with nearly 800-fold library coverage in less than one hour. […] Importantly, sgRNA-specific effects are amplified, whereas cell-specific fluorescence noise is completely reset at the beginning of each sgRNA enrichment round (FIG. 5C), effectively eliminating false-positives arising from spontaneous and lentiviral insertion-induced (and therefore sgRNA-independent) mutations affecting reporters or the NMD pathway. An increase in the population of cells with a defect in NMD becomes evident during FACS rounds 2 and 3 of sgRNA library enrichment, as shown in FIG. 5D for the GeCKO-lentiCRISPR (Shalem et al., Science 2014, 343:84-87) library in the “green” Fireworks cell line. Here, sorting gates were chosen so as to collect no more than 0.16% of the negative cell population.
The pool of sgRNAs isolated from round 2 (FIG. 5C, 5D) of NMD-deficient population enrichment was deep sequenced to determine (i) the overall abundance of each sgRNA in the enriched pool and (ii) the enrichment factor for each surviving sgRNA over the starting sgRNA pool at this round. Here, the sgRNA enrichment factor serves as a measure of the increased fluorescence of the PTC(+) Fireworks reporter achieved by that sgRNA. The top 24 most abundant sgRNAs (of 64,751 sgRNAs originally present in the GeCKO library), which attained enrichment scores higher than 10, are listed in Table 1 along with their intended (Shalem et al., Science 2014, 343:84-87) gene targets.

[2] = tested on: human NMD; experiment: FACS analysis of green fluorescence of the PTC(+) GFP reporter in the "red" Fireworks cell line after NMD inhibition; format: cell-based; details: FIG. 7B
Text: Sixteen of the most abundant individual sgRNAs (Table 1), whose enrichment scores in the 2nd round exceeded 10.0, were individually cloned into linearized Lt-CRISPR vector and lentivirally transduced into the “green” Fireworks cell line. Resulting cells were propagated for 11 days (or 21 days for AVEN sgRNA) and FACS-analyzed to observe an increase in […] fluorescence of the PTC(+) Fireworks reporter. Indeed, the vast majority of sgRNAs reproduced the shift when tested individually. RPS8 and AVEN were targeted with shRNAs (sh22: 5′[…] GTTTTTTG3′ (SEQ ID NO: 8) and sh01: 5′[…] CTTTTTTG3′ (SEQ ID NO: 9) for RPS8 and AVEN, respectively) cloned into the pLKO.1 vector (Moffat et al., Cell 2006, 124:1283-1298) that was used to transduce “green” and “red” Fireworks cells followed by FACS-analysis to observe effects of mRNA knockdown on fluorescence of the PTC(+) reporters.
The Fireworks approach provides the ability to perform forward genetic screens for human NMD factors at the speed of a FACS sorter. As designed, orthogonal Fireworks cell lines respond as expected to the introduction of a stop codon (PTC39) (Zhang et al., RNA 1998, 4:801-815) into the β-globin sequence by a 7- to 9-fold reduction in the reporter's fluorescence (FIGS. 1C, 1D and 2C). PTC39, which is upstream of the last intron in the β-globin pre-mRNA, induces NMD of the Fireworks reporter mRNA. […]

Substance	sgRNA abundance (%) [1] [%]	sgRNA enrichment (2nd round) [1]	green fluorescence of the "red" Fireworks cell line after shRNA transduction [2]
13 (AGTGTCCTCCTTAGCTCTGC; expressed or natural sequence) [compound 13]	0.440	33.8	
26 (TTAGCATCAGCTACTGCCAG; expressed or natural sequence) [compound 26]	0.076	14.2	
21 (GGTACCTTCACTGGAGCCAC; expressed or natural sequence) [compound 21]	0.132	16.1	
22 (TATGTCTTACCAGAAGCTGC; expressed or natural sequence) [compound 22]	0.132	23.3	
24 (TCACGCTTCACGCTGACAGT; expressed or natural sequence) [compound 24]	0.083	80.0	
12 (AGTGTCCTCCTTAGCTCTGC; expressed or natural sequence) [compound 12]	0.872	118.7	
14 (GTTCTCTGATAATCAGAATG; expressed or natural sequence) [compound 14]	0.439	14.7	
29 (TAAGTTGTCAGAAAACATGA; expressed or natural sequence) [compound 29]	0.054	17.1	
17 (CTATGAGGGGGTCAGTGACA; expressed or natural sequence) [compound 17]	0.232	18.3	
31 (GCGCCCAGCTGCCAACACCA; expressed or natural sequence) [compound 31]	0.036	53.9	
18 (TGAGCACATACTCTTCACAC; expressed or natural sequence) [compound 18]	0.180	102.2	
15 (ACGCACCTGGTTGCTGGTAT; expressed or natural sequence) [compound 15]	0.265	54.7	
23 (CTCAACCGATTCCTTAGACG; expressed or natural sequence) [compound 23]	0.125	19.5	
10 (TGATTACGTCCTCCACCTCG; expressed or natural sequence) [compound 10]	1.081	47.0	
16 (GGATGACCAAGACGACATCA; expressed or natural sequence) [compound 16]	0.262	18.3	
19 (CCGTGACATCACAGACCCGT; expressed or natural sequence) [compound 19]	0.176	21.2	
25 (TGCTTTGTGTTTCTTTACAC; expressed or natural sequence) [compound 25]	0.083	17.0	
32 (AGCCCATAATGTACCAGTGC; expressed or natural sequence) [compound 32]	0.033	14.4	
33 (TACCTATGTGCGTCAGCAGC; expressed or natural sequence) [compound 33]	0.023	49.5	
20 (CGCATTGAAAACGTTTGCCG; expressed or natural sequence) [compound 20]	0.153	18.4	
27 (GAAAGACTGAGGAGCTGCTG; expressed or natural sequence) [compound 27]	0.062	38.0	
30 (TCACATCGGCAGCCACCCGT; expressed or natural sequence) [compound 30]	0.043	30.7	
28 (TTCAAACTAGTAAGCAACAC; expressed or natural sequence) [compound 28]	0.054	18.4	
11 (AGGTCCACTCACCATTGGAG; expressed or natural sequence) [compound 11]	0.888	113.9	
CCGGCCGTGCCCTGAGGTTGGACGTCTCGAGACGTCCAACCTCAGGGCACG GTTTTTTG (guide CCGGCCGTGCCCTGAGGTTGGACGTCTCGAGACGTCCAACCTCAGGGCACGGTTTTTTG; expressed or natural sequence) [RPS8-targeting shRNA, shRNA targeting RPS8 cloned into the pLKO.1 vector]			increase in green fluorescence
